# Assays:
# DMS-153 = assay: cells; format: functional, cell-based; conditions: Homo sapiens
# Description: SANGER: Inhibition of human DMS-153 cell growth in a cell viability assay.
# EB2 = assay: cells; format: functional, cell-based; conditions: Homo sapiens;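 further: growth inhibition of EB2 cells, read out with a cell viability assay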
# Description: SANGER: Inhibition of human EB2 cell growth in a cell viability assay.
# EVSA-T = assay: cells; format: functional, cell-based, Homo sapiens; conditions: Homo sapiens, EVSA-T;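 further: growth inhibition of EVSA-T cells, read out with a cell viability assay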
# Description: SANGER: Inhibition of human EVSA-T cell growth in a cell viability assay.
# HSC-4 = assay: cells; format: functional, cell-based, Homo sapiens; conditions: Homo sapiens, HSC-4;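 further: growth inhibition of human HSC-4 cells, read out with a cell viability assay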
# Description: SANGER: Inhibition of human HSC-4 cell growth in a cell viability assay.
# HT55 = assay: cells; format: functional, cell-based, Homo sapiens; conditions: Homo sapiens, HT55;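 further: cell viability readout measuring growth inhibition of human HT55 cells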
# Description: SANGER: Inhibition of human HT55 cell growth in a cell viability assay.
# IST-SL2 = assay: cells; format: functional, cell-based; conditions: Homo sapiens;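 further: growth inhibition of human IST-SL2 cells, read out by a cell viability assay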
# Description: SANGER: Inhibition of human IST-SL2 cell growth in a cell viability assay.
# LC-1F = assay: cells; format: functional, cell-based; conditions: Homo sapiens;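 further: growth inhibition of human LC-1F cells, read out with a cell viability assay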
# Description: SANGER: Inhibition of human LC-1F cell growth in a cell viability assay.
# LC4-1 = assay: cells; format: functional, cell-based; conditions: Homo sapiens;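 further: growth inhibition of LC4-1 cells, read out with a cell viability assay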
# Description: SANGER: Inhibition of human LC4-1 cell growth in a cell viability assay.
# LP-1 = assay: cells; format: functional, cell-based; conditions: Homo sapiens;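 further: growth inhibition of human LP-1 cells, with the read-out taken from a cell viability assay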
# Description: SANGER: Inhibition of human LP-1 cell growth in a cell viability assay.
# MC-CAR = assay: cells; format: functional, cell-based; conditions: Homo sapiens;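 further: growth inhibition of the human MC-CAR cell line, read out by a cell viability assay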
# Description: SANGER: Inhibition of human MC-CAR cell growth in a cell viability assay.
# MHH-CALL-2 = assay: cells; format: functional, cell-based; conditions: Homo sapiens;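 further: growth inhibition of the cell line, read out in a cell viability assay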
# Description: SANGER: Inhibition of human MHH-CALL-2 cell growth in a cell viability assay.
# MONO-MAC-6 = assay: cells; format: functional, cell-based; conditions: Homo sapiens;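 further: cell viability assay measuring growth inhibition of human MONO-MAC-6 cells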
# Description: SANGER: Inhibition of human MONO-MAC-6 cell growth in a cell viability assay.
# NALM-6 = assay: cells; format: functional, cell-based; conditions: Homo sapiens;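 further: growth inhibition of NALM-6 cells, read out with a cell viability assay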
# Description: SANGER: Inhibition of human NALM-6 cell growth in a cell viability assay.
# NB1 = assay: cells; format: functional, cell-based; conditions: Homo sapiens;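 further: reduction of NB1 cell proliferation, read out with a viability assay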
# Description: SANGER: Inhibition of human NB1 cell growth in a cell viability assay.
# NCCIT = assay: SANGER: Inhibition of human NCCIT cell growth in a cell viability assay.; format: functional, cell-based
# NCI-H1417 = assay: cells; format: functional, cell-based; conditions: Homo sapiens;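 further: human NCI-H1417 cells, growth inhibition determined with a cell viability readout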
# Description: SANGER: Inhibition of human NCI-H1417 cell growth in a cell viability assay.
# NCI-H1522 = assay: cells; format: functional, cell-based; conditions: Homo sapiens;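 further: growth inhibition of NCI-H1522 cells, read out with a cell viability assay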
# Description: SANGER: Inhibition of human NCI-H1522 cell growth in a cell viability assay.
# NCI-H1882 = assay: cells; format: functional, cell-based; conditions: Homo sapiens;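 further: growth inhibition of the cell line, determined with a viability assay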
# Description: SANGER: Inhibition of human NCI-H1882 cell growth in a cell viability assay.
# NCI-H2171 = assay: cells; format: functional, cell-based; conditions: Homo sapiens;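 further: growth inhibition of human NCI-H2171 cells, read out by a cell viability assay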
# Description: SANGER: Inhibition of human NCI-H2171 cell growth in a cell viability assay.
# NCI-H2196 = assay: cells; format: functional, cell-based; conditions: Homo sapiens;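 further: cell viability assay used as the readout of growth inhibition in NCI-H2196 cells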
# Description: SANGER: Inhibition of human NCI-H2196 cell growth in a cell viability assay.
# NCI-H460 = assay: cells; format: functional, cell-based, Homo sapiens; conditions: Homo sapiens, NCI-H460;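 further: cell viability assay scoring growth inhibition of human NCI-H460 cells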
# Description: SANGER: Inhibition of human NCI-H460 cell growth in a cell viability assay.
# NCI-H522 = assay: cells; format: functional, cell-based, Homo sapiens; conditions: Homo sapiens, NCI-H522;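 further: cell viability assay measuring growth inhibition of human NCI-H522 cells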
# Description: SANGER: Inhibition of human NCI-H522 cell growth in a cell viability assay.
# NCI-H630 = assay: cells; format: functional, cell-based, Homo sapiens; conditions: Homo sapiens, NCI-H630;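 further: growth inhibition of NCI-H630 cells, read out with a cell viability assay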
# Description: SANGER: Inhibition of human NCI-H630 cell growth in a cell viability assay.
# NCI-H64 = assay: cells; format: functional, cell-based; conditions: Homo sapiens;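 further: growth inhibition of NCI-H64 cells, read out with a cell viability assay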
# Description: SANGER: Inhibition of human NCI-H64 cell growth in a cell viability assay.
# NCI-H719 = assay: cells; format: functional, cell-based; conditions: Homo sapiens;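 further: growth inhibition of the cultured cell line, read out with a viability assay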
# Description: SANGER: Inhibition of human NCI-H719 cell growth in a cell viability assay.
# NCI-H748 = assay: cells; format: functional, cell-based; conditions: Homo sapiens;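 further: growth inhibition of NCI-H748 cells, measured by a cell viability assay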
# Description: SANGER: Inhibition of human NCI-H748 cell growth in a cell viability assay.
# SNU-16 = assay: cells; format: functional, cell-based; conditions: Homo sapiens;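 further: growth inhibition of human SNU-16 cells, determined with a cell viability readout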
# Description: SANGER: Inhibition of human NCI-SNU-16 cell growth in a cell viability assay.
# P31-FUJ = assay: cells; format: functional, cell-based; conditions: Homo sapiens;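 further: growth inhibition of P31-FUJ cells, read out with a viability assay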
# Description: SANGER: Inhibition of human P31-FUJ cell growth in a cell viability assay.
# PF-382 = assay: cells; format: functional, cell-based; conditions: Homo sapiens
# Description: SANGER: Inhibition of human PF-382 cell growth in a cell viability assay.
# RL = assay: cells; format: functional, cell-based; conditions: Homo sapiens
# Description: SANGER: Inhibition of human RL cell growth in a cell viability assay.
# RL95-2 = assay: cells; format: functional, cell-based; conditions: Homo sapiens;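 further: RL95-2 growth inhibition determined through a cell viability readout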
# Description: SANGER: Inhibition of human RL95-2 cell growth in a cell viability assay.
# RPMI-6666 = assay: cells; format: functional, cell-based; conditions: Homo sapiens
# Description: SANGER: Inhibition of human RPMI-6666 cell growth in a cell viability assay.
# RPMI 8402 = assay: SANGER: Inhibition of human RPMI-8402 cell growth in a cell viability assay.; format: functional, cell-based
# SCLC-21H = assay: cells; format: functional, cell-based; conditions: Homo sapiens;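 further: growth inhibition of cultured human SCLC-21H cells, read out with a cell viability assay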
# Description: SANGER: Inhibition of human SCLC-21H cell growth in a cell viability assay.
# SIG-M5 = assay: cells; format: functional, cell-based; conditions: Homo sapiens;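 further: cell viability assay read-out, measuring how strongly growth of cultured human SIG-M5 cells is inhibited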
# Description: SANGER: Inhibition of human SIG-M5 cell growth in a cell viability assay.
# SIMA = assay: cells; format: functional, cell-based, Homo sapiens; conditions: Homo sapiens, SIMA;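 further: growth inhibition of SIMA cells, measured with a cell viability readout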
# Description: SANGER: Inhibition of human SIMA cell growth in a cell viability assay.
# SJRH30 = assay: cells; format: functional, cell-based; conditions: Homo sapiens;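 further: growth inhibition of human SJRH30 cells, read out with a cell viability assay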
# Description: SANGER: Inhibition of human SJRH30 cell growth in a cell viability assay.
# SK-MM-2 = assay: cells; format: functional, cell-based; conditions: Homo sapiens;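 further: growth inhibition of human SK-MM-2 cells, read out with a cell viability assay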
# Description: SANGER: Inhibition of human SK-MM-2 cell growth in a cell viability assay.
# SNU-423 = assay: cells; format: functional, cell-based, Homo sapiens; conditions: Homo sapiens, SNU-423
# Description: SANGER: Inhibition of human SNU-423 cell growth in a cell viability assay.
# TALL-1 = assay: cells; format: functional, cell-based; conditions: Homo sapiens;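 further: growth inhibition of cultured human TALL-1 cells, read out by a cell viability assay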
# Description: SANGER: Inhibition of human TALL-1 cell growth in a cell viability assay.
# BC-3 = assay: cells; format: functional, cell-based; conditions: Homo sapiens;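 further: cell viability assay measuring growth inhibition of human BC-3 cells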
# Description: SANGER: Inhibition of human BC-3 cell growth in a cell viability assay.
# BL-41 = assay: cells; format: functional, cell-based; conditions: Homo sapiens;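 further: growth inhibition of human BL-41 cells, read out with a cell viability assay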
# Description: SANGER: Inhibition of human BL-41 cell growth in a cell viability assay.
# BL-70 = assay: SANGER: Inhibition of human BL-70 cell growth in a cell viability assay.; format: functional, cell-based
# CAL-148 = assay: cells; format: functional, cell-based; conditions: Homo sapiens
# Description: SANGER: Inhibition of human CAL-148 cell growth in a cell viability assay.
# TE-441-T = assay: cells; format: functional, cell-based; conditions: Homo sapiens
# Description: SANGER: Inhibition of human TE-441-T cell growth in a cell viability assay.
# U-698-M = assay: cells; format: functional, cell-based; conditions: Homo sapiens
# Description: SANGER: Inhibition of human U-698-M cell growth in a cell viability assay.
# UACC-812 = assay: cells; format: functional, cell-based; conditions: Homo sapiens
# Description: SANGER: Inhibition of human UACC-812 cell growth in a cell viability assay.
# WSU-NHL = assay: cells; format: functional, cell-based; conditions: Homo sapiens;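 further: growth inhibition of human WSU-NHL cells, read out with a cell viability assay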
# Description: SANGER: Inhibition of human WSU-NHL cell growth in a cell viability assay.
# CESS = assay: SANGER: Inhibition of human CESS cell growth in a cell viability assay.; format: functional, cell-based
# CHP-126 = assay: cells; format: functional, cell-based; conditions: Homo sapiens
# Description: SANGER: Inhibition of human CHP-126 cell growth in a cell viability assay.
# CMK = assay: cells; format: functional, cell-based; conditions: Homo sapiens;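 further: growth inhibition of CMK cells, read out as cell viability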
# Description: SANGER: Inhibition of human CMK cell growth in a cell viability assay.
compound,measurement,setting,value
COC(=O)CNC(=O)C(=O)OC,IC50,DMS-153,> 4000 µM
same,IC50,EB2,297 µM
same,IC50,EVSA-T,> 4000 µM
same,IC50,HSC-4,414 µM
same,IC50,HT55,554 µM
same,IC50,IST-SL2,157 µM
same,IC50,LC-1F,> 4000 µM
same,IC50,LC4-1,99.8 µM
same,IC50,LP-1,190 µM
same,IC50,MC-CAR,509 µM
same,IC50,MHH-CALL-2,173 µM
same,IC50,MONO-MAC-6,202 µM
same,IC50,NALM-6,85 µM
same,IC50,NB1,210 µM
same,IC50,NCCIT,99.8 µM
same,IC50,NCI-H1417,2380 µM
same,IC50,NCI-H1522,> 4000 µM
same,IC50,NCI-H1882,134 µM
same,IC50,NCI-H2171,> 4000 µM
same,IC50,NCI-H2196,2960 µM
same,IC50,NCI-H460,159 µM
same,IC50,NCI-H522,293 µM
same,IC50,NCI-H630,3880 µM
same,IC50,NCI-H64,273 µM
same,IC50,NCI-H719,566 µM
same,IC50,NCI-H748,254 µM
same,IC50,SNU-16,> 4000 µM
same,IC50,P31-FUJ,> 4000 µM
same,IC50,PF-382,85.4 µM
same,IC50,RL,601 µM
same,IC50,RL95-2,3590 µM
same,IC50,RPMI-6666,228 µM
same,IC50,RPMI 8402,313 µM
same,IC50,SCLC-21H,> 4000 µM
same,IC50,SIG-M5,57.6 µM
same,IC50,SIMA,846 µM
same,IC50,SJRH30,1550 µM
same,IC50,SK-MM-2,101 µM
same,IC50,SNU-423,175 µM
same,IC50,TALL-1,> 4000 µM
same,IC50,BC-3,305 µM
same,IC50,BL-41,54.9 µM
same,IC50,BL-70,15.9 µM
same,IC50,CAL-148,> 4000 µM
same,IC50,TE-441-T,1870 µM
same,IC50,U-698-M,13.3 µM
same,IC50,UACC-812,3010 µM
same,IC50,WSU-NHL,> 4000 µM
same,IC50,CESS,60.8 µM
same,IC50,CHP-126,3500 µM
same,IC50,CMK,126 µM
COc1cc([C@@H]2c3cc4c(cc3[C@@H](O[C@@H]3O[C@@H]5CO[C@@H](C)O[C@H]5[C@H](O)[C@H]3O)[C@H]3COC(=O)[C@H]23)OCO4)cc(OC)c1O [ETOPOSIDE],IC50,DMS-153,> 16 µM
same,IC50,EB2,0.391 µM
same,IC50,EVSA-T,> 16 µM
same,IC50,HSC-4,1.26 µM
same,IC50,HT55,> 16 µM
same,IC50,IST-SL2,0.85 µM
same,IC50,LC-1F,> 16 µM
same,IC50,LC4-1,3.23 µM
same,IC50,LP-1,> 16 µM
same,IC50,MC-CAR,0.58 µM
same,IC50,MHH-CALL-2,> 16 µM
same,IC50,MONO-MAC-6,12.1 µM
same,IC50,NALM-6,0.206 µM
same,IC50,NB1,10.2 µM
same,IC50,NCCIT,> 16 µM
same,IC50,NCI-H1417,4.61 µM
same,IC50,NCI-H1522,> 16 µM
same,IC50,NCI-H1882,2.68 µM
same,IC50,NCI-H2171,> 16 µM
same,IC50,NCI-H2196,7.49 µM
same,IC50,NCI-H460,0.236 µM
same,IC50,NCI-H522,3.36 µM
same,IC50,NCI-H630,9.12 µM
same,IC50,NCI-H64,4 µM
same,IC50,NCI-H719,> 16 µM
same,IC50,NCI-H748,0.871 µM
same,IC50,SNU-16,> 16 µM
same,IC50,P31-FUJ,> 16 µM
same,IC50,PF-382,0.724 µM
same,IC50,RL,> 16 µM
same,IC50,RL95-2,1.11 µM
same,IC50,RPMI-6666,1.03 µM
same,IC50,RPMI 8402,0.271 µM
same,IC50,SCLC-21H,> 16 µM
same,IC50,SIG-M5,0.131 µM
same,IC50,SIMA,8.85 µM
same,IC50,SJRH30,4.72 µM
same,IC50,SK-MM-2,9.68 µM
same,IC50,SNU-423,1.75 µM
same,IC50,TALL-1,> 16 µM
same,IC50,BC-3,2.48 µM
same,IC50,BL-41,2.08 µM
same,IC50,BL-70,7.07 µM
same,IC50,CAL-148,0.625 µM
same,IC50,TE-441-T,> 16 µM
same,IC50,U-698-M,12.5 µM
same,IC50,UACC-812,> 16 µM
same,IC50,WSU-NHL,4.36 µM
same,IC50,CESS,0.384 µM
same,IC50,CHP-126,6.27 µM
same,IC50,CMK,2.68 µM

# From ChEMBL document CHEMBL1201861, “Genomics of Drug Sensitity in Cancer screening data, Wellcome Trust Sanger Institute”
